Measurements published in ChEMBL document CHEMBL3763120, “Phenyl Benzenesulfonylhydrazides Exhibit Selective Indoleamine 2,3-Dioxygenase Inhibition with Potent in Vivo Pharmacodynamic Activity and Antitumor Efficacy” (J Med Chem, 2016).

How the values were obtained:
[1] = molecular target: Acetylcholine receptor subunit alpha (Homo sapiens) (UniProt P02708); test: Inhibition of Nicotinic acetylcholine alpha1 bungarotoxin binding site (unknown origin) at 10 uM
[2] = molecular target: L-type calcium channel, dihydropyridine binding site (Homo sapiens, UniProt O60840+Q01668+Q13698+Q13936); test: Inhibition of L-type calcium channel dihydropyridine binding site (unknown origin) at 10 uM; type: protein assay
Homo sapiens [3] = organism: Homo sapiens; test: Inhibition of GABAA receptor central flunitrazepam site (unknown origin) at 10 uM
[4] = molecular target: Muscarinic acetylcholine receptor M3 (Homo sapiens) (UniProt P20309); test: Inhibition of Muscarinic M3 receptor (unknown origin) at 10 uM
[5] = molecular target: 5-hydroxytryptamine receptor 2B (Homo sapiens) (UniProt P41595); test: Inhibition of 5-HT2B receptor (unknown origin) at 10 uM
Mus musculus [6] = test: Decrease in ratio of kynurenine to tryptophan in Balb/c mouse tumor xenografted with CT26 cells at 100 mg/kg bid for 18 days administered via oral gavage after 6 hrs by LC-MS/MS analysis; type: functional
[7] = AUC (0 to infinity) in Sprague-Dawley rat plasma at 10 mg/kg, po by LC-MS/MS analysis; type: ADME, organism-based; set-up: dose 10 mg/kg, route oral, time infinity
[8] = molecular target: Interleukin-1 receptor type 1 (Homo sapiens) (UniProt P14778); test: Inhibition of IL-1 receptor (unknown origin) at 10 uM
hERG (KCNH2) = hERG (KCNH2) (Homo sapiens, UniProt Q12809); test: Inhibition of human ERG at 10 uM
[9] = molecular target: Sodium-dependent serotonin transporter (Homo sapiens) (UniProt P31645); test: Inhibition of Serotonin transporter (unknown origin) at 10 uM
Sequence of Sodium-dependent serotonin transporter (Homo sapiens) (P31645 whole entry, looked up): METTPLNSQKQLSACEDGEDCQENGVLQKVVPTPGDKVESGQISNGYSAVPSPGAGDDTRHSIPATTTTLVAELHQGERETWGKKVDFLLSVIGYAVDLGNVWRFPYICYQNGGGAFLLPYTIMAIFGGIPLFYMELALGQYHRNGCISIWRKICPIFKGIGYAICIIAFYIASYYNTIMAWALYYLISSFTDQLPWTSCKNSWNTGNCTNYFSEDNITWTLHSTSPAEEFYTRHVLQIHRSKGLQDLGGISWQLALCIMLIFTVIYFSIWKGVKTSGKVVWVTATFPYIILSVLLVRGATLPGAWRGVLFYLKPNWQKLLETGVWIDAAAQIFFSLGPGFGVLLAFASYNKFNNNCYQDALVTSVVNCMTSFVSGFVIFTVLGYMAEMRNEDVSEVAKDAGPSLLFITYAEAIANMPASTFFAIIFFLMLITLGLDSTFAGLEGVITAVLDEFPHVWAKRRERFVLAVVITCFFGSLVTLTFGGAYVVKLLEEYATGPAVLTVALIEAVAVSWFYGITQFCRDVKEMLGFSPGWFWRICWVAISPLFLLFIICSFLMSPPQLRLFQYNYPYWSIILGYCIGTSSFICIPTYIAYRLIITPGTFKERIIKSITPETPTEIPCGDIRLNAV

[10] = molecular target: Alpha-2A adrenergic receptor (Homo sapiens) (UniProt P08913); test: Inhibition of Adrenergic alpha2A receptor (unknown origin) at 10 uM
Sequence of Alpha-2A adrenergic receptor (Homo sapiens) (P08913 whole entry): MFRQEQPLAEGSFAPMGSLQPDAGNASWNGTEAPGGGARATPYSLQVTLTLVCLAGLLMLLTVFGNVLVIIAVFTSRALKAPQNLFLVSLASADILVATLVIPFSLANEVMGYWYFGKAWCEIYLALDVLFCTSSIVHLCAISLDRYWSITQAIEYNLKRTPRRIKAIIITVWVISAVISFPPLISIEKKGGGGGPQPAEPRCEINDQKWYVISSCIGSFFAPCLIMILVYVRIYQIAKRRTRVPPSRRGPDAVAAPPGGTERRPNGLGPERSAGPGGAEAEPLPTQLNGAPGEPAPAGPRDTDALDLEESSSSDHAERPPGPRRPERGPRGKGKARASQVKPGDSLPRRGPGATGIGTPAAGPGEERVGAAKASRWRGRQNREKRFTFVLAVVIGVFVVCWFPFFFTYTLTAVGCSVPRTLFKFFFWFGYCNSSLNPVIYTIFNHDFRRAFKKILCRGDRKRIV

[11] = molecular target: Histamine H2 receptor (Homo sapiens) (UniProt P25021); test: Inhibition of Histamine H2 receptor (unknown origin) at 10 uM
Sequence of Histamine H2 receptor (Homo sapiens) (P25021 whole entry): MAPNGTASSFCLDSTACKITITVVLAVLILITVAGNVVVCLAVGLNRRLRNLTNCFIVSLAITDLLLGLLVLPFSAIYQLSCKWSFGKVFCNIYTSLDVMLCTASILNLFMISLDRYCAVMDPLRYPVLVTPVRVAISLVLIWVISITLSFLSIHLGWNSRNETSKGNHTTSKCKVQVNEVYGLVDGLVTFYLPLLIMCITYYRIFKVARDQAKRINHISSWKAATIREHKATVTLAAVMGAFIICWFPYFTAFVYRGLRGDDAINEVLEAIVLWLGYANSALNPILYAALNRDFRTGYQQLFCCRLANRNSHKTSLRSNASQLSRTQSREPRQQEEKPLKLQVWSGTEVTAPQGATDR

CT26 [12] = test: Antitumor activity against mouse CT26 cells xenografted in Balb/c mouse assessed as median time to end point at 100 mg/kg, po bid for 22 days; type: functional
CT26 [13] = test: Antitumor activity against mouse CT26 cells xenografted in Balb/c mouse assessed as tumor growth delay at 400 mg/kg, po bid for 22 days; type: functional; settings: 528 h, read-out: TGI
[14] = AUC (0 to infinity) in Sprague-Dawley rat plasma at 2 mg/kg, iv by LC-MS/MS analysis; type: ADME, organism-based; set-up: dose 2 mg/kg, route intravenous, time infinity
[15] = molecular target: D(2) dopamine receptor (Homo sapiens) (UniProt P14416); test: Inhibition of Dopamine D2S receptor (unknown origin) at 10 uM
Sequence of D(2) dopamine receptor (Homo sapiens) (P14416 whole entry): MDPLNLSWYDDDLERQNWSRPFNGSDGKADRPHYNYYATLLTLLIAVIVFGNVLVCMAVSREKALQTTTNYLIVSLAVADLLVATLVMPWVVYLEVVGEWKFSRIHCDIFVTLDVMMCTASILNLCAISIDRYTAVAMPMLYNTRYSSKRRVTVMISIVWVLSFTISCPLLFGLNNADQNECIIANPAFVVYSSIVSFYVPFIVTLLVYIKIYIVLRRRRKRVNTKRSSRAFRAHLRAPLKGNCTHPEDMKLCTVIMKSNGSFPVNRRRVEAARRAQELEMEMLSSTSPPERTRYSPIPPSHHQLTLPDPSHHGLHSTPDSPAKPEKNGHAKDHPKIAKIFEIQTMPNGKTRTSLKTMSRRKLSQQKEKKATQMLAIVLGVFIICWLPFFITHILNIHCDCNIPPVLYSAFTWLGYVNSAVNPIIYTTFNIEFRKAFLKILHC

[16] = molecular target: Histamine H3 receptor (Homo sapiens) (UniProt Q9Y5N1); test: Inhibition of Histamine H3 receptor (unknown origin) at 10 uM
[17] = molecular target: D(1A) dopamine receptor (Homo sapiens) (UniProt P21728); test: Inhibition of Dopamine D1 receptor (unknown origin) at 10 uM
Sequence of D(1A) dopamine receptor (Homo sapiens) (P21728 whole entry): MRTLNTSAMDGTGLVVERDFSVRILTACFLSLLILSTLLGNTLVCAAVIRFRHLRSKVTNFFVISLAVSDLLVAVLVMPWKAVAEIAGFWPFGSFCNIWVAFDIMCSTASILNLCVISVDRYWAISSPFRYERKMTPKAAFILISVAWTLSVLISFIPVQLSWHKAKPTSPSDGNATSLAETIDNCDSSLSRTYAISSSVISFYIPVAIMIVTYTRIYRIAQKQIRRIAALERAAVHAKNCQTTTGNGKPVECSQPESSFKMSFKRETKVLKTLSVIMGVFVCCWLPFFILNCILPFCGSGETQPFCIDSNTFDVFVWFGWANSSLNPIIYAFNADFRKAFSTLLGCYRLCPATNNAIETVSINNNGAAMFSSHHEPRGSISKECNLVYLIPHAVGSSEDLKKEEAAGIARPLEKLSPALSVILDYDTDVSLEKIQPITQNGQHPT

[18] = molecular target: Neuropeptide Y receptor type 2 (Homo sapiens) (UniProt P49146); test: Inhibition of Neuropeptide Y2 receptor (unknown origin) at 10 uM
Sequence of Neuropeptide Y receptor type 2 (Homo sapiens) (P49146 whole entry): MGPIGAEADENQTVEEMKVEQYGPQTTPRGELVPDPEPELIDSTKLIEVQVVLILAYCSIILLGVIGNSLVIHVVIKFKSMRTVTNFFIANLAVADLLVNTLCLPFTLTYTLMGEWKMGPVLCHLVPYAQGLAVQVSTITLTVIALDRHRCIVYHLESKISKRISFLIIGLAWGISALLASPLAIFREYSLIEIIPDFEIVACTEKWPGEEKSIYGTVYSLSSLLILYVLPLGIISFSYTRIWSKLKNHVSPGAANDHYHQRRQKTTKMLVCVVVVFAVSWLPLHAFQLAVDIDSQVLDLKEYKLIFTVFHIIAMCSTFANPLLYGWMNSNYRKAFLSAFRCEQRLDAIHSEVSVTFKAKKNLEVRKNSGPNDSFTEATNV

Homo sapiens [19] = organism: Homo sapiens; test: Inhibition of Purinergic P2X receptor (unknown origin) at 10 uM
[20] = molecular target: Thyroid hormone receptor (Homo sapiens) (UniProt P10827+P10828); test: Inhibition of Thyroid hormone receptor (unknown origin) at 10 uM; type: protein-complex assay
[21] = molecular target: D(3) dopamine receptor (Homo sapiens) (UniProt P35462); test: Inhibition of Dopamine D3 receptor (unknown origin) at 10 uM
CT26 [22] = test: Antitumor activity against mouse CT26 cells xenografted in Balb/c mouse assessed as tumor growth delay at 200 mg/kg, po bid for 22 days; type: functional; settings: 528 h, read-out: TGI
[23] = Cmax in Sprague-Dawley rat plasma at 10 mg/kg, po by LC-MS/MS analysis; type: ADME, organism-based; set-up: dose 10 mg/kg, route oral
[24] = molecular target: Glutamate [NMDA] receptor (Homo sapiens) (UniProt Q05586+Q12879+Q13224+O15399+O60391+Q14957+Q8TCU5); test: Inhibition of NMDA receptor glycine binding site (unknown origin) at 10 uM
Homo sapiens [25] = organism: Homo sapiens; test: Inhibition of Nicotinic acetylcholine receptor (unknown origin) at 10 uM
Mus musculus [26] = test: Decrease in ratio of kynurenine to tryptophan in C57BL/6 mouse at 50 mg/kg, po after 2 hrs by LC-MS/MS analysis; type: functional; settings: C57BL/6, po
[27] = molecular target: Endothelin receptor type B (Homo sapiens) (UniProt P24530); test: Inhibition of ETB receptor (unknown origin) at 10 uM
Sequence of Endothelin receptor type B (Homo sapiens) (P24530 whole entry): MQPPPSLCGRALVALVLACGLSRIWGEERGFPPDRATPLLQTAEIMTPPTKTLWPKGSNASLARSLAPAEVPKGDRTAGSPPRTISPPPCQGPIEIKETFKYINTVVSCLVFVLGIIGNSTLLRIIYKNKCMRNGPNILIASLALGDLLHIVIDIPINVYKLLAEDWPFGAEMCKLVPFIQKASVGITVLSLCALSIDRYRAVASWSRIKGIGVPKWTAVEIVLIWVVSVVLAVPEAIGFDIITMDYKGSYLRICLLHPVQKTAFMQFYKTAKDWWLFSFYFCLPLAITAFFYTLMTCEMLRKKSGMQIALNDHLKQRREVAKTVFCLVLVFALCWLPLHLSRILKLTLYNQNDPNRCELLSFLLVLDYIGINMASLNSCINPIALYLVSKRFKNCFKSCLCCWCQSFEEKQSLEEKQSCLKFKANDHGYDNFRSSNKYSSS

Homo sapiens [28] = organism: Homo sapiens; test: Inhibition of Glutamate kainate receptor (unknown origin) at 10 uM
[29] = molecular target: Cysteinyl leukotriene receptor 1 (Homo sapiens) (UniProt Q9Y271); test: Inhibition of CysLT1 receptor (unknown origin) at 10 uM
[30] = molecular target: L-type calcium channel, benzothiazepine binding site (Homo sapiens, UniProt O60840+Q01668+Q13698+Q13936); test: Inhibition of L-type calcium channel benzothiazepine binding site (unknown origin) at 10 uM; type: protein assay
[31] = molecular target: Alpha-1D adrenergic receptor (Homo sapiens) (UniProt P25100); test: Inhibition of Adrenergic alpha1D receptor (unknown origin) at 10 uM
Sequence of Alpha-1D adrenergic receptor (Homo sapiens) (P25100 whole entry): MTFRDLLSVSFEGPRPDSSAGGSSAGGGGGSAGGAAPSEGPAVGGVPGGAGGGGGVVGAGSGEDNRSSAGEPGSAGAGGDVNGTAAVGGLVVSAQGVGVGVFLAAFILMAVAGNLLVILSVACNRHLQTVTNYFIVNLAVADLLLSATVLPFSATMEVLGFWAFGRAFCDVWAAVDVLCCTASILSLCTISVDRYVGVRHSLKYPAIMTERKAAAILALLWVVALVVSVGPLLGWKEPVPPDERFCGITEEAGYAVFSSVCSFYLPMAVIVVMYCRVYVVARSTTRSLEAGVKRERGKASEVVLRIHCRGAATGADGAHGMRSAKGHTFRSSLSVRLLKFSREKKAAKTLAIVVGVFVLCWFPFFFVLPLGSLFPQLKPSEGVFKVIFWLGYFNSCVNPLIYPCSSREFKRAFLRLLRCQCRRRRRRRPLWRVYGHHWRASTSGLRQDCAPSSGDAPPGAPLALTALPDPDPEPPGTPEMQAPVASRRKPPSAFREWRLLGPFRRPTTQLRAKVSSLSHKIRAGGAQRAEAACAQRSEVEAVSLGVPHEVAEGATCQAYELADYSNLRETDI

[32] = molecular target: Glucocorticoid receptor (Homo sapiens) (UniProt P04150); test: Inhibition of Glucocorticoid receptor (unknown origin) at 10 uM
Mus musculus [33] = test: Decrease in ratio of kynurenine to tryptophan in Balb/c mouse tumor xenografted with CT26 cells at 100 mg/kg bid for 18 days administered via oral gavage after 2 hrs by LC-MS/MS analysis; type: functional
[34] = Clearance in Sprague-Dawley rat plasma at 2 mg/kg, iv by LC-MS/MS analysis; type: ADME, organism-based
Homo sapiens [35] = organism: Homo sapiens; test: Inhibition of Platelet-activating factor (unknown origin) at 10 uM
CT26 [36] = test: Antitumor activity against mouse CT26 cells xenografted in Balb/c mouse assessed as tumor growth delay at 100 mg/kg, po bid for 22 days; type: functional; settings: 528 h, read-out: TGI
Homo sapiens [37] = organism: Homo sapiens; test: Inhibition of GABAA receptor central muscimol site (unknown origin) at 10 uM
Homo sapiens [38] = organism: Homo sapiens; test: Inhibition of rolipram binding site (unknown origin) at 10 uM
[39] = molecular target: Neuropeptide Y receptor type 1 (Homo sapiens) (UniProt P25929); test: Inhibition of Neuropeptide Y1 receptor (unknown origin) at 10 uM
Sequence of Neuropeptide Y receptor type 1 (Homo sapiens) (P25929 whole entry): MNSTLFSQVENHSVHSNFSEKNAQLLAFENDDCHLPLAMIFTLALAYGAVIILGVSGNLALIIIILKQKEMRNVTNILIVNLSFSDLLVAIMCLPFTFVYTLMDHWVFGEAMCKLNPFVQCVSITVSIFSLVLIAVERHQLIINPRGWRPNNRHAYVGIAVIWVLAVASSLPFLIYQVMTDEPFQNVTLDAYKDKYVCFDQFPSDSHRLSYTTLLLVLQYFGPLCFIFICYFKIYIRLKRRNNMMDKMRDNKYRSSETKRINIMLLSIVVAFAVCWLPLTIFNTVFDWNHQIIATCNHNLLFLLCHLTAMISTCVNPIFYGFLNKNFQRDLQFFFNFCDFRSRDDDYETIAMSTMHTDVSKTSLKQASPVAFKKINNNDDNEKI

[40] = Half life in Sprague-Dawley rat plasma at 2 mg/kg, iv by LC-MS/MS analysis; type: ADME, organism-based; settings: Sprague-Dawley, plasma
[41] = Volume of distribution at steady state in Sprague-Dawley rat plasma at 2 mg/kg, iv by LC-MS/MS analysis; type: ADME, organism-based; settings: Sprague-Dawley, plasma, read-out: Vdss
[42] = molecular target: Androgen receptor (Homo sapiens) (UniProt P10275); test: Inhibition of Androgen receptor (unknown origin) at 10 uM
[43] = molecular target: B1 bradykinin receptor (Homo sapiens) (UniProt P46663); test: Inhibition of Bradykinin B1 receptor (unknown origin) at 10 uM
Sequence of B1 bradykinin receptor (Homo sapiens) (P46663 whole entry): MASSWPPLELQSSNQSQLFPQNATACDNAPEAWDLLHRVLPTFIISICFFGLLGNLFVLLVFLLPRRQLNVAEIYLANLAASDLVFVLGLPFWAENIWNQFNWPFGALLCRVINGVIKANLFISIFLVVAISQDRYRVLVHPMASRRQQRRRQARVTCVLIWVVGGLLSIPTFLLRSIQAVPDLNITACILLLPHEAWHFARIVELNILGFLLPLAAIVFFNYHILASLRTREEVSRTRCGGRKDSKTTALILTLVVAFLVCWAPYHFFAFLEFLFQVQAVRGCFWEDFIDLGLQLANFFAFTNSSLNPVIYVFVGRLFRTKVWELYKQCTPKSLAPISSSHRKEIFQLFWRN

Homo sapiens [44] = organism: Homo sapiens; test: Inhibition of Phorbol ester receptor (unknown origin) at 10 uM

Sequence of Acetylcholine receptor subunit alpha (Homo sapiens) (P02708 whole entry): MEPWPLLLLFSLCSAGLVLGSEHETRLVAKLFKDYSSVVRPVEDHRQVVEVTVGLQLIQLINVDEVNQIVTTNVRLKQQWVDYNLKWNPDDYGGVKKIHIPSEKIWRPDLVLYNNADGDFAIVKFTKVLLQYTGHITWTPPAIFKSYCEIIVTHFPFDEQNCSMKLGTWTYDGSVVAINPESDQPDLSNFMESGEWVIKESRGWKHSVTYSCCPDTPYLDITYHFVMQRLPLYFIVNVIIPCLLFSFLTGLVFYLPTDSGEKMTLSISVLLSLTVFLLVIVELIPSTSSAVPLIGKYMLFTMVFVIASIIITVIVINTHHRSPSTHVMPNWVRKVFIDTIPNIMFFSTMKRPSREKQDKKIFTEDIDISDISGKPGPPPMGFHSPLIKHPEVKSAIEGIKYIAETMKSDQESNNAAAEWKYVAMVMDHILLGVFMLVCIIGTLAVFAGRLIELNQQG

O=C1Cc2cc(S(=O)(=O)NNc3ccc(Br)cc3)ccc2N1
inhibition [1]: < 50%
inhibition at 10 µM [2]: < 50%
inhibition (Homo sapiens [3]): < 50%
inhibition [4]: < 50%
inhibition [5]: < 50%
inhibition in vivo at 100 mg/kg (Mus musculus [6]): 83%
AUC(0-inf) [7]: 7.21 µg·h/mL
inhibition [8]: < 50%
inhibition at 10 µM (hERG (KCNH2)): < 50%
inhibition [9]: < 50%
inhibition [10]: < 50%
inhibition [11]: < 50%
Time (CT26 [12]): 4 days
inhibition in vivo at 400 mg/kg (CT26 [13]): 73%
AUC(0-inf) [14]: 2.43 µg·h/mL
inhibition [15]: < 50%
inhibition [16]: < 50%
inhibition [17]: < 50%
inhibition [18]: < 50%
inhibition (Homo sapiens [19]): < 50%
inhibition [20]: < 50%
inhibition [21]: < 50%
inhibition in vivo at 200 mg/kg (CT26 [22]): 63%
Cmax [23]: 2.59 µg/mL
inhibition [24]: < 50%
inhibition (Homo sapiens [25]): < 50%
inhibition in vivo at 50 mg/kg (Mus musculus [26]): 31%
inhibition [27]: < 50%
inhibition (Homo sapiens [28]): < 50%
inhibition [29]: < 50%
inhibition at 10 µM [30]: < 50%
inhibition [31]: < 50%
inhibition [32]: < 50%
inhibition in vivo at 100 mg/kg (Mus musculus [33]): 58%
clearance [34]: 0.954 L/h/kg
inhibition (Homo sapiens [35]): < 50%
inhibition in vivo at 100 mg/kg (CT26 [36]): 40%
inhibition (Homo sapiens [37]): < 50%
inhibition (Homo sapiens [38]): < 50%
inhibition [39]: < 50%
half-life [40]: 2.3 h
Vd [41]: 1.2 L/kg
inhibition [42]: < 50%
inhibition [43]: < 50%
inhibition (Homo sapiens [44]): < 50%
